Test results published in patent US4537899A, “Antiviral acylated 1,2,4-triazole derivatives” (BIOGAL Gyogyszergyar, priority 1982, dated 1985).
In brackets after ≈: the same amount, converted by molar mass.

Assays:
in vitro = type: cell-based
Procedure: The antiviral testing of the compounds was carried out in two steps. First the dose-response curve of cytotoxicity was plotted, then the antiviral activity was assayed in cell cultures containing nontoxic amounts of the compound.
1. The cytotoxicity of the compounds was assayed in HeLa and RK-13 cell cultures by quantitating the protein content of the cells [S. Horvath: Cytotoxicity of drugs and diverse chemical agents to cell cultures, Toxicology, 16, 59 (1980)]. From the data of the dose-response curve the 50 percent cytotoxic concentration of the compounds was determined (CT50), i.e. the concentration inhibiting cell proliferation by 50 percent. Similarly from the data of the dose-response curve the highest concentration of the compounds where cell proliferation compared to the control is not inhibited at all, can be determined, too (0 percent cytotoxic concentration, CT0). To simplify matters, in the Table the logarithm of these values is summarized (i.e. log CT0 =1 representing a concentration of 10 μg/ml).

Rubeola virus = experiment: Antiviral effect against Rubeola virus at concentrations of CT0 (reduction of TCID50 virus titer); type: cell-based, Rubeola virus (strain Judith); settings: RK-13 cell cultures, log TCID50 difference of control and test compound
[1] = Oral toxicity (LD50) in rats; settings: rat, in vivo

| Compound | CC50 (in vitro; human, hela cells) [µg/mL] | MNTC (in vitro; human, hela cells) [µg/mL] | CC50 (in vitro; rabbit, rk-13 cells) [µg/mL] | MNTC (in vitro; rabbit, rk-13 cells) [µg/mL] | Δlog TCID50 (Rubeola virus) | LD50 [1] [mg/kg] |
| --- | --- | --- | --- | --- | --- | --- |
| CSc1n[nH]c(NC(=O)c2ccccc2[N+](=O)[O-])n1 [Example 61, 3-methylthio-5-(2-nitro-benzoyl-amino)-1H-1,2,4-triazole] | 39.8 (≈ 143 µM) | 10 | 63.1 (≈ 226 µM) | 15.8 | 3.0 | – |
| CSc1n[nH]c(NC(=O)c2ccccc2SC)n1 [Example 70, 3-methylthio-5-(2-methylthio-benzoyl-amino)-1H-1,2,4-triazole] | 79.4 (≈ 283 µM) | 20 | 50.1 (≈ 179 µM) | 15.8 | ≥ 5.3 | – |
| CSc1n[nH]c(NC(=O)c2ccccc2Cl)n1 [Example 63, 3-methylthio-5-(2-chloro-benzoyl-amino)-1H-1,2,4-triazole] | 50.1 (≈ 187 µM) | 7.94 | 79.4 (≈ 296 µM) | 15.8 | ≥ 5.3 | – |
| CSc1n[nH]c(NC(=O)c2ccccc2C)n1 [Example 47, 3-methylthio-5-(2-methyl-benzoyl-amino)-1H-1,2,4-triazole] | 100 (≈ 403 µM) | 39.8 | 79.4 (≈ 320 µM) | 12.6 | ≥ 6.8 | 3200 |
| CSc1n[nH]c(NC(=O)c2ccccc2Br)n1 [Example 53, 3-methylthio-5-(2-bromo-benzoyl-amino)-1H-1,2,4-triazole] | 126 (≈ 402 µM) | 39.8 | 79.4 (≈ 254 µM) | 25.1 | ≥ 6.8 | – |
| CCSc1n[nH]c(NC(=O)c2ccccc2C)n1 [Example 73, 3-ethylthio-5-(2-methyl-benzoyl-amino)-1H-1,2,4-triazole] | 50.1 (≈ 191 µM) | 7.94 | – | – | ≥ 6.0 | – |
